Source: ChEMBL document CHEMBL5365481, “Design, Synthesis, and Activity Evaluation of Novel Dual-Target Inhibitors with Antifungal and Immunoregulatory Properties” (J Med Chem, 2023)
Converted amounts (≈) assume the structure as drawn. The source made the active and inactive calls. The rule behind the calls is not given here.

What was measured:
Candida albicans [1] = test: Antifungal activity against fluconazole-resistant Candida albicans 901 assessed as inhibition of fungal growth incubated for 72 hrs by CLSI based liquid medium microdilution method; format: functional
Candida albicans [2] = test: Antifungal activity against fluconazole-resistant Candida albicans 632 assessed as inhibition of fungal growth incubated for 72 hrs by CLSI based liquid medium microdilution method; format: functional
Candida tropicalis = test: Antifungal activity against Candida tropicalis ATCC 1369 assessed as inhibition of fungal growth incubated for 72 hrs by CLSI based liquid medium microdilution method; format: functional
Cryptococcus neoformans = test: Antifungal activity against Cryptococcus neoformans ZKCC 2209 assessed as inhibition of fungal growth incubated for 72 hrs by CLSI based liquid medium microdilution method; format: functional
Candida albicans [3] = test: Antifungal activity against fluconazole-resistant Candida albicans 17# assessed as inhibition of fungal growth incubated for 72 hrs by CLSI based liquid medium microdilution method; format: functional
Candida albicans [4] = test: Antifungal activity against fluconazole-resistant Candida albicans 904 assessed as inhibition of fungal growth incubated for 72 hrs by CLSI based liquid medium microdilution method; format: functional
Aspergillus fumigatus = test: Antifungal activity against Aspergillus fumigatus KM8001 assessed as inhibition of fungal growth incubated for 72 hrs by CLSI based liquid medium microdilution method; format: functional
Candida albicans [5] = test: Antifungal activity against fluconazole-resistant Candida albicans CaR assessed as inhibition of fungal growth incubated for 72 hrs by CLSI based liquid medium microdilution method; format: functional
Pichia kudriavzevii = test: Antifungal activity against Candida krusei ATCC 6258 assessed as inhibition of fungal growth incubated for 72 hrs by CLSI based liquid medium microdilution method; format: functional
Candida albicans [6] = test: Antifungal activity against Candida albicans ATCC SC5314 assessed as inhibition of fungal growth incubated for 72 hrs by CLSI based liquid medium microdilution method; format: functional
Candida albicans [7] = test: Induction of apoptosis in Candida albicans ATCC SC5314 assessed as early apoptotic cells at 1 microM/ml incubated for 48 hrs by Hoechst 33258/PI staining based flow cytometry (Rvb= 5.1 +/- 0.3%); format: functional
[8] = biological target: T1, Lanosterol 14-alpha demethylase (Candida albicans (strain SC5314 / ATCC MYA-2876) (Yeast), UniProt P10613); test: Inhibition of Candida albicans ATCC SC5314 CYP51 assessed as other unknown sterol content at 4 ug/ml measured after 16 hrs by GC-MS analysis (Rvb= 3.82%); set-up: scale not given: the % may be the effect or the level left; conditions: at 4 µg/mL
Candida albicans [9] = test: Induction of ROS generation in Candida albicans ATCC SC5314 assessed as increase in fluorescence intensity at 1 microM/ml incubated for 48 hrs by fluorescent microscopy; format: functional, organism-based
Candida albicans [10] = test: Induction of apoptosis in Candida albicans ATCC SC5314 assessed as late apoptotic cells at 1 microM/ml incubated for 48 hrs by Hoechst 33258/PI staining based flow cytometry (Rvb= 0.05 +/- 0.01%); format: functional
Candida albicans [11] = test: Antifungal activity against Candida albicans ATCC SC5314 assessed as change in osmotic pressure at 1 microM/ml incubated for 48 hrs by absorbance based assay; format: functional, organism-based
Candida albicans [12] = test: Antifungal activity against Candida albicans ATCC SC5314 assessed as decrease in fungal cell density at 1 microM/ml incubated for 48 hrs by absorbance based assay; format: functional, organism-based
Candida albicans [13] = test: Induction of apoptosis in Candida albicans ATCC SC5314 assessed as increase in blue fluorescence intensity at 1 microM/ml incubated for 48 hrs by Hoechst 33258/PI staining based fluorescence microscopy; format: functional, organism-based
Candida albicans [14] = test: Induction of apoptosis in Candida albicans ATCC SC5314 assessed as normal cells at 1 microM/ml incubated for 48 hrs by Hoechst 33258/PI staining based flow cytometry (Rvb= 94.8 +/- 0.3%); format: functional
[15] = biological target: Programmed cell death protein 1/Programmed cell death 1 ligand 1 (Homo sapiens, UniProt Q9NZQ7); test: Inhibition of PD-1/PD-L1 interaction (unknown origin) incubated for 15 mins by ELISA; format: protein-complex assay
[16] = biological target: Programmed cell death 1 ligand 1 (Homo sapiens, UniProt Q9NZQ7); test: Binding affinity to PD-L1 (unknown origin) assessed as dissociation constant by SPR analysis
Candida albicans [17] = test: Induction of mitochondrial membrane depolarization in Candida albicans ATCC SC5314 assessed as normal cells at 1 microM/ml incubated for 24 hrs by JC-1 staining based flow cytometry assay (reference value: 94.4 +/- 1.15%); format: functional
[18] = biological target: T1, Lanosterol 14-alpha demethylase; test: Inhibition of Candida albicans ATCC SC5314 CYP51 using lanosterol as substrate incubated for 30 mins by HPLC assay
[19] = biological target: T1, Lanosterol 14-alpha demethylase; test: Inhibition of Candida albicans ATCC SC5314 CYP51 assessed as ergosterol content at 4 ug/ml measured after 16 hrs by GC-MS analysis (reference value: 92.71%); set-up: scale not given: the % may be the effect or the level left; conditions: at 4 µg/mL
Candida albicans [20] = test: Induction of apoptosis in Candida albicans ATCC SC5314 assessed as necrotic cells at 1 microM/ml incubated for 48 hrs by Hoechst 33258/PI staining based flow cytometry (Rvb= 0.03 +/- 0.01%); format: functional
Candida albicans [21] = test: In vivo antifungal activity against Candida albicans ATCC SC5314 infected in BALB/c mouse assessed as decrease in COX2 expression level at 10 ug, ip for 14 days by Western blot analysis; format: functional, organism-based; conditions: dose 10.0 µg, time 14.0 day
[22] = biological target: T1, Lanosterol 14-alpha demethylase; test: Inhibition of Candida albicans ATCC SC5314 CYP51 assessed as eburicol content at 4 ug/ml measured after 16 hrs by GC-MS analysis (Rvb= 3.47%); set-up: scale not given: the % may be the effect or the level left; conditions: at 4 µg/mL
[23] = biological target: T1, Lanosterol 14-alpha demethylase; test: Inhibition of Candida albicans ATCC SC5314 CYP51 assessed as lanosterol content at 4 ug/ml measured after 16 hrs by GC-MS analysis relative to control; set-up: scale not given: the % may be the effect or the level left; conditions: at 4 µg/mL
Candida albicans [24] = test: In vivo antifungal activity against Candida albicans ATCC SC5314 infected in BALB/c mouse assessed as decrease in IFN-gamma expression level at 10 ug, ip for 14 days by Western blot analysis; format: functional, organism-based; conditions: dose 10.0 µg, time 14.0 day
Candida albicans [25] = test: Induction of mitochondrial membrane depolarization in Candida albicans ATCC SC5314 assessed as depolarized cells at 1 microM/ml incubated for 24 hrs by JC-1 staining based flow cytometry assay (reference value: 0.3 to 5.1%); format: functional
Candida albicans [26] = test: In vivo antifungal activity against Candida albicans ATCC SC5314 infected in BALB/c mouse assessed as decrease in PD-L1 expression level at 10 ug, ip for 14 days by Western blot analysis; format: functional, organism-based; conditions: dose 10.0 µg, time 14.0 day
Candida albicans [27] = test: Induction of mitochondrial membrane depolarization in Candida albicans ATCC SC5314 assessed as polarized cells at 1 microM/ml incubated for 24 hrs by JC-1 staining based flow cytometry assay (reference value: 0.28 +/- 0.02%); format: functional
Candida albicans [28] = test: Antifungal activity against Candida albicans ATCC SC5314 assessed as change in structural stability at 1 microM/ml incubated for 48 hrs by absorbance based assay; format: functional, organism-based
Candida albicans [29] = test: In vivo antifungal activity against Candida albicans ATCC SC5314 infected in BALB/c mouse assessed as decrease in NLRP3 expression level at 10 ug, ip for 14 days by Western blot analysis; format: functional, organism-based; conditions: dose 10.0 µg, time 14.0 day

T1 sequence (P10613 whole entry): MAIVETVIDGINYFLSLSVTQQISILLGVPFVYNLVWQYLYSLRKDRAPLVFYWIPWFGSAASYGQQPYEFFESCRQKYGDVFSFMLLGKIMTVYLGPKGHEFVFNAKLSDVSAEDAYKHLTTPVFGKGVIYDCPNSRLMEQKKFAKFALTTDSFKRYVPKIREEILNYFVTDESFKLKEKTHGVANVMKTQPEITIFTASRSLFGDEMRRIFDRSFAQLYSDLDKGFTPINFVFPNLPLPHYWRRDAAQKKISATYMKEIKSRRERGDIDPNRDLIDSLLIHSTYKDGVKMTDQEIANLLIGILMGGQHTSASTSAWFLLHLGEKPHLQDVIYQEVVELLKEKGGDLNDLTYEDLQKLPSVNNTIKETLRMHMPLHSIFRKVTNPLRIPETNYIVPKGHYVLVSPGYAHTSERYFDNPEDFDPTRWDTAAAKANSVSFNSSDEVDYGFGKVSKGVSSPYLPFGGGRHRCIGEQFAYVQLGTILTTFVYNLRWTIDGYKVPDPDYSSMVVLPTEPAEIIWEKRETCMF
Programmed cell death 1 ligand 1, sequence (Q9NZQ7 whole entry): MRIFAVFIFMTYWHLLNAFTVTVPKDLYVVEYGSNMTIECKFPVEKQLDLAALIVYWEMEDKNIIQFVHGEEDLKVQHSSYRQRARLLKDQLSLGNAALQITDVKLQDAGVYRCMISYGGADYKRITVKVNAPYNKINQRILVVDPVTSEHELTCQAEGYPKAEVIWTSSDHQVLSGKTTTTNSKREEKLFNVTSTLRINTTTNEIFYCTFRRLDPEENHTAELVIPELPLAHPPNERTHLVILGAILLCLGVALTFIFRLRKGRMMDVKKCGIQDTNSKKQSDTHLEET
Programmed cell death protein 1/Programmed cell death 1 ligand 1, sequence (Q15116 whole entry): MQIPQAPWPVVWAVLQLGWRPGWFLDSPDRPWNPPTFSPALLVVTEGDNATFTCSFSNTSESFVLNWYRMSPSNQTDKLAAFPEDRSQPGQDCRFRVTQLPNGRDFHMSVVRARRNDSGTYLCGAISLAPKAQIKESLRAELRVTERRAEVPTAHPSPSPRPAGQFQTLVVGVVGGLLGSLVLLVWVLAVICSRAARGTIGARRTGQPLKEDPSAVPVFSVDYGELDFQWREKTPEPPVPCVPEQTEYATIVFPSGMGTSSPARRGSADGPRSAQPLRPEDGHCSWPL
Programmed cell death protein 1/Programmed cell death 1 ligand 1, sequence (Q9NZQ7 whole entry): as the sequence (Q9NZQ7 whole entry) above

CC(=O)N1CCN(c2ccc(OCC3COC(Cn4ccnc4)(c4ccc(Cl)cc4Cl)O3)cc2)CC1 (stereo not drawn) [KETOCONAZOLE]
MIC50 (Candida albicans [1]): 4 µg/mL (≈ 7.53 µM) | MIC50 (Candida albicans [2]): > 8 µg/mL | MIC50 (Candida tropicalis): 0.5 µg/mL (≈ 0.941 µM) | MIC50 (Cryptococcus neoformans): 1 µg/mL (≈ 1.88 µM) | MIC50 (Candida albicans [3]): 2 µg/mL (≈ 3.76 µM) | MIC50 (Candida albicans [4]): > 8 µg/mL | MIC50 (Aspergillus fumigatus): 4 µg/mL (≈ 7.53 µM) | MIC50 (Candida albicans [5]): 4 µg/mL (≈ 7.53 µM) | MIC50 (Pichia kudriavzevii): 1 µg/mL (≈ 1.88 µM) | MIC50 (Candida albicans [6]): 2 µg/mL (≈ 3.76 µM)

CC(C)c1ccc(C(=O)N2CCC(NC(=O)c3nc(-n4cncn4)c4ccccc4n3)CC2)cc1
MIC50 (Candida tropicalis): 1 µg/mL (≈ 2.13 µM) | MIC50 (Cryptococcus neoformans): 2 µg/mL (≈ 4.26 µM) | MIC50 (Aspergillus fumigatus): 4 µg/mL (≈ 8.52 µM) | MIC50 (Pichia kudriavzevii): 0.5 µg/mL (≈ 1.06 µM) | MIC50 (Candida albicans [6]): 0.5 µg/mL (≈ 1.06 µM)

CC(=O)c1ccc(NC(=O)c2nc(-n3ccnc3)c3ccccc3n2)cc1
Activity (Candida albicans [7]): 44.8% | MIC50 (Candida albicans [1]): > 8 µg/mL | Activity [8]: 6.14% | MIC50 (Candida albicans [2]): 2 µg/mL (≈ 5.6 µM) | MIC50 (Candida tropicalis): 1 µg/mL (≈ 2.8 µM) | MIC50 (Cryptococcus neoformans): 1 µg/mL (≈ 2.8 µM) | MIC50 (Candida albicans [3]): 2 µg/mL (≈ 5.6 µM) | MIC50 (Candida albicans [4]): 4 µg/mL (≈ 11.2 µM) | Activity (Candida albicans [9]): Active | Activity (Candida albicans [10]): 0.13% | Activity (Candida albicans [11]): Active | Activity (Candida albicans [12]): Active | MIC50 (Aspergillus fumigatus): 2 µg/mL (≈ 5.6 µM) | MIC50 (Candida albicans [5]): 4 µg/mL (≈ 11.2 µM) | Activity (Candida albicans [13]): Active | Activity (Candida albicans [14]): 55.1% | IC50 [15]: 0.083 µM | Kd [16]: 0.0345 µM | Activity (Candida albicans [17]): 77.1% | IC50 [18]: 0.884 µM | Activity [19]: 21.53% | Activity (Candida albicans [20]): 0.03% | Activity (Candida albicans [21]): Active | Activity [22]: 41.69% | Activity [23]: 20.64% | Activity (Candida albicans [24]): Active | Activity (Candida albicans [25]): 0.16% | Activity (Candida albicans [26]): Active | Activity (Candida albicans [27]): 0.07% | MIC50 (Pichia kudriavzevii): 1 µg/mL (≈ 2.8 µM) | Activity (Candida albicans [28]): Active | Activity (Candida albicans [29]): Active | MIC50 (Candida albicans [6]): 0.5 µg/mL (≈ 1.4 µM)

O=C(NC1CCCc2ccccc21)c1nc(-n2cncn2)c2cc(Cl)ccc2n1 (stereo not drawn)
MIC50 (Candida tropicalis): 2 µg/mL (≈ 4.94 µM) | MIC50 (Cryptococcus neoformans): 2 µg/mL (≈ 4.94 µM) | MIC50 (Aspergillus fumigatus): > 8 µg/mL | MIC50 (Pichia kudriavzevii): > 8 µg/mL | MIC50 (Candida albicans [6]): 2 µg/mL (≈ 4.94 µM)

CC(=O)c1ccc(C(=O)N2CCC(NC(=O)c3nc(-n4ccnc4)c4ccccc4n3)CC2)cc1
MIC50 (Candida tropicalis): 0.5 µg/mL (≈ 1.07 µM) | MIC50 (Cryptococcus neoformans): 2 µg/mL (≈ 4.27 µM) | MIC50 (Aspergillus fumigatus): 4 µg/mL (≈ 8.54 µM) | MIC50 (Pichia kudriavzevii): 1 µg/mL (≈ 2.13 µM) | MIC50 (Candida albicans [6]): 2 µg/mL (≈ 4.27 µM)

O=C(NC1CCCc2ccccc21)c1nc(-n2ccnc2)c2ccccc2n1 (stereo not drawn)
MIC50 (Candida tropicalis): 4 µg/mL (≈ 10.8 µM) | MIC50 (Cryptococcus neoformans): 2 µg/mL (≈ 5.41 µM) | MIC50 (Aspergillus fumigatus): 4 µg/mL (≈ 10.8 µM) | MIC50 (Pichia kudriavzevii): 2 µg/mL (≈ 5.41 µM) | MIC50 (Candida albicans [6]): 4 µg/mL (≈ 10.8 µM)

O=C(NCc1ccccc1)c1nc(-n2ccnc2)c2cc(Cl)ccc2n1
MIC50 (Candida tropicalis): 2 µg/mL (≈ 5.5 µM) | MIC50 (Cryptococcus neoformans): 4 µg/mL (≈ 11 µM) | MIC50 (Aspergillus fumigatus): 4 µg/mL (≈ 11 µM) | MIC50 (Pichia kudriavzevii): 1 µg/mL (≈ 2.75 µM) | MIC50 (Candida albicans [6]): 2 µg/mL (≈ 5.5 µM)

O=C(NC1CCCc2ccccc21)c1nc(-n2cncn2)c2ccccc2n1 (stereo not drawn)
MIC50 (Candida tropicalis): 1 µg/mL (≈ 2.7 µM) | MIC50 (Cryptococcus neoformans): 4 µg/mL (≈ 10.8 µM) | MIC50 (Aspergillus fumigatus): > 8 µg/mL | MIC50 (Pichia kudriavzevii): 2 µg/mL (≈ 5.4 µM) | MIC50 (Candida albicans [6]): 2 µg/mL (≈ 5.4 µM)
